Where a SMILES comes first, the peptide text is derived from it. [ ]: non-standard residue; d: D form.
Columns and labels:
Assay type in all cases: cell-based
C. quillermondiae = experiment: MIC, clinical yeast strains; design: Minimum inhibitory concentration: unit: μg/ml; conditions: C. quillermondiae clinical yeast strain 1
In short: (§1)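 Broth microdilution with inocula adjusted to 5.0×10^5 cfu/ml; peptides tested at 0.125 to 128 μg/ml and incubated at 37° C for 20 to 24 hours. Bacteria were grown in Mueller Hinton broth, yeasts in potato dextrose broth. MIC was the lowest concentration showing no visible growth.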

C. parapsilosis = experiment: MIC, clinical yeast strains
In short: as §1

C. glabrata = experiment: MIC, clinical yeast strains
In short: as §1

Candida albicans = experiment: MIC, clinical yeast strains
In short: as §1

[1] = test system: clinical strains of Acinetobacter baumannii; experiment: MIC, microdilution, clinical strains; design: unit: μg/ml; conditions: 0.02% BSA, 0.2% acetic acid
In short: as §1

[2] = test system: clinical strains of A. johnsonii; experiment: MIC, microdilution, clinical strains; design: unit: μg/ml; conditions: Acinetobacter johnsonii strain 1, Muller Hinton broth-cation adjusted, 0.02% BSA, 0.2% acetic acid
In short: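 MIC = lowest peptide concentration without visual growth after 20–24 h at 37° C. Range 0.125–128 μg/ml, inoculum 5.0×10^5 cfu/ml, microdilution format. Antifungal tests used potato dextrose broth; bacterial tests used MH broth.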

[3] = test system: clinical strains of K. pneumoniae; experiment: MIC, microdilution, clinical strains; conditions: 0.02% BSA, 0.2% acetic acid
In short: as §1

[4] = test system: clinical strains of P. aeruginosa; experiment: MIC, microdilution, clinical strains; conditions: 0.02% BSA, 0.2% acetic acid
In short: as §1

[5] = test system: clinical strains of Serratia marcescens; experiment: MIC, microdilution, clinical strains; conditions: 0.02% BSA, 0.2% acetic acid
In short: as §1

[6] = test system: clinical strains of Proteus mirabilis; experiment: MIC, microdilution, clinical strains; conditions: 0.02% BSA, 0.2% acetic acid
In short: as §1

[7] = test system: clinical strains of S. aureus; experiment: MIC, microdilution, clinical strains; conditions: 0.02% BSA, 0.2% acetic acid
In short: as §1

[8] = test system: clinical strains of E. cloacae; experiment: MIC, microdilution, clinical strains; conditions: 0.02% BSA, 0.2% acetic acid
In short: as §1

[9] = test system: clinical strains of S. pneumoniae; experiment: MIC, microdilution, clinical strains; conditions: 0.02% BSA, 0.2% acetic acid
In short: as §1

[10] = test system: clinical strains of E. coli; experiment: MIC, microdilution, clinical strains; conditions: microdilution, Muller Hinton broth-cation adjusted, 0.02% BSA, 0.2% acetic acid
In short: as §1

CC(C)C[C@@H](NC(=O)[C@H](N)CCCNC(=N)N)C(=O)N[C@H](CCCCN)C(=O)N[C@H](Cc1c[nH]c2ccccc12)C(=O)N[C@H](Cc1ccccc1)C(=O)N[C@H](CC(C)C)C(=O)N[C@H](CC(C)C)C(=O)N[C@H](Cc1ccccc1)C(=O)N[C@H](CCCNC(=N)N)C(=O)N[C@H](CCCCN)C(=O)N[C@H](CCCNC(=N)N)C(=O)O [Chain308D] (H-[dR][dL][dK][dW][dF][dL][dL][dF][dR][dK][dR]-OH)
Minimum inhibitory concentration (C. quillermondiae): 4
Minimum inhibitory concentration (C. parapsilosis; C. parapsilosis clinical yeast strain 1): 8
Minimum inhibitory concentration (C. parapsilosis; C. parapsilosis clinical yeast strain 2): 8
Minimum inhibitory concentration (C. parapsilosis; C. parapsilosis clinical yeast strain 3): 8
Minimum inhibitory concentration (C. parapsilosis; C. parapsilosis clinical yeast strain 4): 4
Minimum inhibitory concentration (C. glabrata; C. glabrata clinical yeast strain 1): 16
Minimum inhibitory concentration (C. glabrata; C. glabrata clinical yeast strain 2): 16
Minimum inhibitory concentration (C. glabrata; C. glabrata clinical yeast strain 3): 16
Minimum inhibitory concentration (C. glabrata; C. glabrata clinical yeast strain 4): 16
Minimum inhibitory concentration (Candida albicans; Candida albicans clinical yeast strain 1): 16
Minimum inhibitory concentration (Candida albicans; Candida albicans clinical yeast strain 2): 16
Minimum inhibitory concentration (Candida albicans; Candida albicans clinical yeast strain 3): 16
Minimum inhibitory concentration (Candida albicans; Candida albicans clinical yeast strain 4): 16
Minimum inhibitory concentration (Candida albicans; Candida albicans clinical yeast strain 5): 16
Minimum inhibitory concentration ([1]; Acinetobacter baumannii strain 1, Muller Hinton broth-cation adjusted): 4
Minimum inhibitory concentration ([1]; Acinetobacter baumannii strain 2, Muller Hinton broth-cation adjusted): 4
Minimum inhibitory concentration ([1]; Acinetobacter baumannii strain 3, Muller Hinton broth-cation adjusted): 4
Minimum inhibitory concentration ([1]; Acinetobacter baumannii strain 4, Muller Hinton broth-cation adjusted): 2
Minimum inhibitory concentration ([1]; Acinetobacter baumannii strain 5, Muller Hinton broth-cation adjusted): 2
Minimum inhibitory concentration [2]: 4
Minimum inhibitory concentration ([3]; Klebsiella pneumoniae strain 1, Muller Hinton broth-cation adjusted): 4
Minimum inhibitory concentration ([3]; Klebsiella pneumoniae strain 2, Muller Hinton broth-cation adjusted): 4
Minimum inhibitory concentration ([3]; Klebsiella pneumoniae strain 3, Muller Hinton broth-cation adjusted): 4
Minimum inhibitory concentration ([3]; Klebsiella pneumoniae strain 4, Muller Hinton broth-cation adjusted): 4
Minimum inhibitory concentration ([3]; Klebsiella pneumoniae strain 5, Muller Hinton broth-cation adjusted): 4
Minimum inhibitory concentration ([4]; Pseudomonas aeruginosa strain 1, Muller Hinton broth-cation adjusted): 8
Minimum inhibitory concentration ([4]; Pseudomonas aeruginosa strain 2, Muller Hinton broth-cation adjusted): 8
Minimum inhibitory concentration ([4]; Pseudomonas aeruginosa strain 3, Muller Hinton broth-cation adjusted): 4
Minimum inhibitory concentration ([4]; Pseudomonas aeruginosa strain 4, Muller Hinton broth-cation adjusted): 4
Minimum inhibitory concentration ([4]; Pseudomonas aeruginosa strain 5, Muller Hinton broth-cation adjusted): 4
Minimum inhibitory concentration ([5]; Serratia marcescens strain 1, Muller Hinton broth-cation adjusted): 128
Minimum inhibitory concentration ([5]; Serratia marcescens strain 2, Muller Hinton broth-cation adjusted): 128
Minimum inhibitory concentration ([5]; Serratia marcescens strain 3, Muller Hinton broth-cation adjusted): 64
Minimum inhibitory concentration ([5]; Serratia marcescens strain 4, Muller Hinton broth-cation adjusted): >128
Minimum inhibitory concentration ([5]; Serratia marcescens strain 5, Muller Hinton broth-cation adjusted): 128
Minimum inhibitory concentration ([6]; Proteus mirabilis strain 1, Muller Hinton broth-cation adjusted): >128
Minimum inhibitory concentration ([6]; Proteus mirabilis strain 2, Muller Hinton broth-cation adjusted): 32
Minimum inhibitory concentration ([6]; Proteus mirabilis strain 3, Muller Hinton broth-cation adjusted): 128
Minimum inhibitory concentration ([6]; Proteus mirabilis strain 4, Muller Hinton broth-cation adjusted): >128
Minimum inhibitory concentration ([6]; Proteus mirabilis strain 5, Muller Hinton broth-cation adjusted): >128
Minimum inhibitory concentration ([7]; Staphylococcus aureus strain 1, Muller Hinton broth-cation adjusted): 1
Minimum inhibitory concentration ([7]; Staphylococcus aureus strain 2, Muller Hinton broth-cation adjusted): 2
Minimum inhibitory concentration ([7]; Staphylococcus aureus strain 3, Muller Hinton broth-cation adjusted): 1
Minimum inhibitory concentration ([7]; Staphylococcus aureus strain 4, Muller Hinton broth-cation adjusted): 2
Minimum inhibitory concentration ([7]; Staphylococcus aureus strain 5, Muller Hinton broth-cation adjusted): 2
Minimum inhibitory concentration ([8]; Enterobacter cloacae strain 1, Muller Hinton broth-cation adjusted): 2
Minimum inhibitory concentration ([8]; Enterobacter cloacae strain 2, Muller Hinton broth-cation adjusted): 2
Minimum inhibitory concentration ([8]; Enterobacter cloacae strain 3, Muller Hinton broth-cation adjusted): 2
Minimum inhibitory concentration ([8]; Enterobacter cloacae strain 4, Muller Hinton broth-cation adjusted): 2
Minimum inhibitory concentration ([8]; Enterobacter cloacae strain 5, Muller Hinton broth-cation adjusted): 2
Minimum inhibitory concentration ([9]; Streptococcus pneumoniae strain 1, Muller Hinton broth-cation adjusted): 8
Minimum inhibitory concentration ([9]; Streptococcus pneumoniae strain 2, Muller Hinton broth-cation adjusted): 4
Minimum inhibitory concentration ([9]; Streptococcus pneumoniae strain 3, Muller Hinton broth-cation adjusted): 8
Minimum inhibitory concentration ([9]; Streptococcus pneumoniae strain 4, Muller Hinton broth-cation adjusted): 2
Minimum inhibitory concentration ([9]; Streptococcus pneumoniae strain 5, Muller Hinton broth-cation adjusted): 4
Minimum inhibitory concentration ([10]; Escherichia coli strain 1): 1
Minimum inhibitory concentration ([10]; Escherichia coli strain 2): 0.5
Minimum inhibitory concentration ([10]; Escherichia coli strain 3): 1
Minimum inhibitory concentration ([10]; Escherichia coli strain 4): 1
Minimum inhibitory concentration ([10]; Escherichia coli strain 5): 1

— patent US10457710B2, “Antimicrobial peptides, their variants and uses” (priority 2015, dated 2019)
